Reference: patent US7652029B2, “Therapeutic compound and treatments” (priority 2004, dated 2010)

Legend:
CCRF-CEM = assay: NCI multiple cell line test (SRB); type: cell-based, human; conditions: CCRF-CEM (Leukemia), 48 h
RPMI-8226 = assay: NCI multiple cell line test (SRB); type: cell-based, human; conditions: RPMI-8226 (Leukemia), 48 h
A549/ATCC = assay: NCI multiple cell line test (SRB); type: cell-based, human; conditions: A549/ATCC (Non-Small Cell Lung Cancer), 48 h
EKVX = assay: NCI multiple cell line test (SRB); type: cell-based, human; conditions: EKVX (Non-Small Cell Lung Cancer), 48 h
HOP-92 = assay: NCI multiple cell line test (SRB); type: cell-based, human; conditions: HOP-92 (Non-Small Cell Lung Cancer), 48 h
NCI-H226 = assay: NCI multiple cell line test (SRB); type: cell-based, human; conditions: NCI-H226 (Non-Small Cell Lung Cancer), 48 h
NCI-H23 = assay: NCI multiple cell line test (SRB); type: cell-based, human; conditions: NCI-H23 (Non-Small Cell Lung Cancer), 48 h
COLO 205 = assay: NCI multiple cell line test (SRB); type: cell-based, human; conditions: COLO 205 (Colon Cancer), 48 h
SF-268 = assay: NCI multiple cell line test (SRB); type: cell-based, human
SNB-19 = assay: NCI multiple cell line test (SRB); type: cell-based, human; conditions: SNB-19 (CNS Cancer), 48 h
LOX IMVI = assay: NCI multiple cell line test (SRB); type: cell-based, human; conditions: LOX IMVI (Melanoma), 48 h
SK-MEL-2 = assay: NCI multiple cell line test (SRB); type: cell-based, human; conditions: SK-MEL-2 (Melanoma), 48 h
SK-MEL-28 = assay: NCI multiple cell line test (SRB); type: cell-based, human; conditions: SK-MEL-28 (Melanoma), 48 h
SK-MEL-5 = assay: NCI multiple cell line test (SRB); type: cell-based, human; conditions: SK-MEL-5 (Melanoma), 48 h
IGROV1 = assay: NCI multiple cell line test (SRB); type: cell-based, human; conditions: IGROV1 (Ovarian Cancer), 48 h
786-0 = assay: NCI multiple cell line test (SRB); type: cell-based, human; conditions: 786-0 (Renal Cancer), 48 h
CAKI-1 = assay: NCI multiple cell line test (SRB); type: cell-based, human; conditions: CAKI-1 (Renal Cancer), 48 h
UO-31 = assay: NCI multiple cell line test (SRB); type: cell-based, human; conditions: UO-31 (Renal Cancer), 48 h
PC-3 = assay: NCI multiple cell line test (SRB); type: cell-based, human; conditions: PC-3 (Prostate Cancer), 48 h
MCF7 = assay: NCI multiple cell line test (SRB); type: cell-based, human
BT-549 = assay: NCI multiple cell line test (SRB); type: cell-based, human; conditions: BT-549 (Breast Cancer), 48 h
T-47D = assay: NCI multiple cell line test (SRB); type: cell-based, human; conditions: T-47D (Breast Cancer), 48 h
HOP-92 cells = assay: Growth response, MTT dye conversion assay; type: cell-based, human; conditions: low doses (FIG. 12 as printed)
[1] = system: human endothelial vein cells (HUVECs); assay: Growth response, MTT dye conversion assay; type: cell-based; conditions: FIG. 6; 48 hours; compared with cisplatin
Lewis murine lung cells = assay: Growth response, MTT dye conversion assay; type: cell-based; conditions: FIG. 9; mouse lung cell line
ACHN cells = assay: Growth response, MTT dye conversion assay; type: cell-based, human; conditions: low doses (FIG. 14 as printed)
[2] = Homo sapiens, read-out: −log10GI50 (converted)

COC(=O)C1=C(C(=O)OC)SC2(S1)C(C(=O)OC)=C(C(=O)OC)SC1=C2c2cccc(OC)c2N(C(=O)CN2C(=O)CCC2=O)C1(C)C [MT477]
−log10LC50 (CCRF-CEM): * (effect not reached at maximum dose of 0.05 millimolar) | −log10TGI (CCRF-CEM): * (effect not reached at maximum dose of 0.05 millimolar) | IC50 (CCRF-CEM; [2]): 3240 nM | IC50 (RPMI-8226; [2]): 7590 nM | −log10LC50 (RPMI-8226): 4.42 molar | −log10TGI (RPMI-8226): 4.77 molar | −log10LC50 (A549/ATCC): * (effect not reached at maximum dose of 0.05 millimolar) | −log10TGI (A549/ATCC): 4.77 molar | IC50 (A549/ATCC; [2]): 3800 nM | −log10LC50 (EKVX): 4.34 molar | −log10TGI (EKVX): 4.7 molar | IC50 (EKVX; [2]): 8510 nM | −log10LC50 (HOP-92): 4.6 molar | −log10TGI (HOP-92): 5.21 molar | IC50 (HOP-92; [2]): 1660 nM | IC50 (NCI-H226; [2]): 7080 nM | −log10LC50 (NCI-H226): * (effect not reached at maximum dose of 0.05 millimolar) | −log10TGI (NCI-H226): 4.72 molar | IC50 (NCI-H23; [2]): 955 nM | −log10LC50 (NCI-H23): 5.42 molar | −log10TGI (NCI-H23): 5.72 molar | −log10LC50 (COLO 205): * (effect not reached at maximum dose of 0.05 millimolar) | −log10TGI (COLO 205): 5.19 molar | IC50 (COLO 205; [2]): 1660 nM | GI50 (SF-268; Homo sapiens, SF-268, NCI-SF268, MT477 ACTUAL): 2510 nM | IC50 (SF-268; Homo sapiens, SF-268 (CNS Cancer), 48 h, read-out: −log10GI50 (converted)): 2140 nM | Activity against CNS cancer NCI-SF268 (SF-268; MT477 ACTUAL): Yes | −log10LC50 (SF-268; SF-268 (CNS Cancer), 48 h): * (effect not reached at maximum dose of 0.05 millimolar) | −log10TGI (SF-268; SF-268 (CNS Cancer), 48 h): 4.97 molar | IC50 (SNB-19; [2]): 7940 nM | −log10LC50 (SNB-19): 4.46 molar | −log10TGI (SNB-19): 4.78 molar | IC50 (LOX IMVI; [2]): 851 nM | −log10LC50 (LOX IMVI): 5.52 molar | −log10TGI (LOX IMVI): 5.79 molar | IC50 (SK-MEL-2; [2]): 4680 nM | −log10LC50 (SK-MEL-2): * (effect not reached at maximum dose of 0.05 millimolar) | −log10TGI (SK-MEL-2): 4.41 molar | IC50 (SK-MEL-28; [2]): 1550 nM | −log10LC50 (SK-MEL-28): * (effect not reached at maximum dose of 0.05 millimolar) | −log10TGI (SK-MEL-28): 5.27 molar | IC50 (SK-MEL-5; [2]): 6170 nM | −log10LC50 (SK-MEL-5): * (effect not reached at maximum dose of 0.05 millimolar) | −log10TGI (SK-MEL-5): 4.51 molar | IC50 (IGROV1; Homo sapiens, IGROV-1, read-out: −log10GI50 (converted)): 17800 nM | −log10LC50 (IGROV1): * (effect not reached at maximum dose of 0.05 millimolar) | −log10TGI (IGROV1): 4.3 molar | −log10LC50 (786-0): 5.47 molar | −log10TGI (786-0): 5.76 molar | IC50 (786-0; [2]): 871 nM | −log10LC50 (CAKI-1): 4.48 molar | −log10TGI (CAKI-1): 4.83 molar | IC50 (CAKI-1; [2]): 6610 nM | IC50 (UO-31; [2]): 3390 nM | −log10LC50 (UO-31): * (effect not reached at maximum dose of 0.05 millimolar) | −log10TGI (UO-31): 4.81 molar | IC50 (PC-3; [2]): 1450 nM | −log10LC50 (PC-3): 4.64 molar | −log10TGI (PC-3): 5.35 molar | IC50 (MCF7; Homo sapiens, MCF7 (Breast Cancer), 48 h, read-out: −log10GI50 (converted)): 1780 nM | GI50 (MCF7; Homo sapiens, NCI-MCF7, MT477 ACTUAL): 1580 nM | −log10LC50 (MCF7; MCF7 (Breast Cancer), 48 h): * (effect not reached at maximum dose of 0.05 millimolar) | −log10TGI (MCF7; MCF7 (Breast Cancer), 48 h): * (effect not reached at maximum dose of 0.05 millimolar) | Activity against breast cancer NCI-MCF7 (MCF7; MT477 ACTUAL): Yes | −log10LC50 (BT-549): * (effect not reached at maximum dose of 0.05 millimolar) | −log10TGI (BT-549): 4.86 molar | IC50 (BT-549; [2]): 3550 nM | IC50 (T-47D; Homo sapiens, T47D, read-out: −log10GI50 (converted)): 1510 nM | −log10LC50 (T-47D): * (effect not reached at maximum dose of 0.05 millimolar) | −log10TGI (T-47D): 5.40 molar | growth response at low concentrations (HOP-92 cells): effective even at very low doses, including micromolar dosages | cytotoxicity profile (growth response) [1]: cytotoxicity profile that is similar to cisplatin | growth response (Lewis murine lung cells): effective in human and mouse cell lung lines | growth response at low concentrations (ACHN cells): effective even at very low doses, including micromolar dosages
